In paper PMC10348910, “Epigenetic reprogramming of cell cycle genes by ACK1 promotes breast cancer resistance to CDK4/6 inhibitor” (Oncogene, 2023):

What was measured:
MDA-MB-468 xenografts = test: MDA-MB-468 xenograft in mammary fat pad; assay type: in vivo, female SCID mice
Description: To validate these findings in breast tumors, MDA-MB-468 cells were injected in female SCID mice. Once palpable tumors were formed (5 weeks), mice were treated with vehicle (6% captisol), palbociclib (80 mg/Kg of body weight), (R)-9b (36 mg/Kg of body weight) by oral route, or (R)-9b (24 mg/Kg of body weight) by subcutaneous injection, five times a week.
Fig. 7 ACK1 inhibitor overcomes palbociclib-resistant breast cancer growth and metastasis. A 3 × 10^6 MDA-MB-468 cells were injected in the 4th inguinal mammary fat pad of female SCID mice. Once the tumors were palpable, the mice were treated with either vehicle (Captisol; n = 7), Palbociclib at 80 mg/kg (n = 6), or (R)-9b at 36 mg/Kg (n = 6) orally. In addition, mice were injected with (R)-9b at 24 mg/Kg (n = 7) subcutaneously. Mice were treated five times a week, for 22 days. B, C The tumors were harvested and photographed, and the weights were recorded. D Vehicle or (R)-9b treated breast cancer cells were subjected to ChIP using pY88-H4 antibody, followed by qPCR for CXCR4 gene. E CXCR4 mRNA transcript levels in vehicle or (R)-9b treated MDA-MB-231 cells. 18S rRNA was used as housekeeping gene. F MDA-MB-231 cells were transfected with ACK1 or scrambled siRNA, followed by qRT-PCR to determine CXCR4 mRNA transcript levels. G Representative lung metastatic deposits of MDA-MB-231 cells injected via the tail veins in female SCID mice, treated with either vehicle or 24 mg/Kg (R)-9b orally. H Graphical quantitation of lung metastatic deposit. I and J 5 × 10^5 luciferase expressing 4T1 cells were injected into 4th inguinal mammary fat pad of female BALB/c mice. Once the tumors were palpable, mice were treated with either vehicle or (R)-9b at 24 mg/Kg (n = 3, each) subcutaneously for 2 weeks, five times a week. The metastases were assessed using IVIS. Data are represented as the mean ± SEM. *p < 0.05; **p < 0.01; ***p < 0.001. For (A, C–F, I), p values were calculated using unpaired two-tailed Student’s t test.
All animal experiments were performed using the standards for humane care in accordance with the NIH Guide for the Care and Use of Laboratory Animals. Mice were obtained from Charles River Laboratories and experiments were performed according to IACUC protocols (IACUC # 20180259) approved in writing by Washington University in St. Louis Department of Comparative Medicine (DCM). 1.5 × 10^6 Cal-148 or MCF7, or 3 × 10^6 MDA-MB-468 cells were suspended in 200 µl of PBS with 50% matrigel (BD Biosciences) and were implanted subcutaneously into the mammary fat pad (between fourth and fifth inguinal) of female SCID C.B17 mice (n = 8 per group). Once the tumors were palpable (about 4–5 weeks), mice were randomly chosen for subcutaneous injection (Cal-148 and MCF7; 24 mg/Kg body weight) or given oral gavage with (R)-9b (MCF7; 36 mg/Kg body weight) resuspended in 6% Captisol (or 6% Captisol in PBS as vehicle), five times a week, for 4–5 weeks. Tumor volumes were measured twice a week using calipers. At the end of the study, all mice were humanely euthanized, tumors extracted and weighed.

BT549 = test: proliferation assay, trypan blue exclusion; assay type: cell-based; details: BT549 (lacking Rb), 96 h
Description: (§1) A–F Breast cancer cells were treated with either vehicle or (R)-9b for 48 h; cells were harvested and processed for cell cycle analysis using propidium iodide staining, followed by flow cytometry. G BT549 and H MDA-MB-468 cells were treated with varying drug concentrations of palbociclib or (R)-9b for 96 h and the cell viability assessed using trypan blue exclusion method. I BT549, and J MDA-MB-468 cells were treated with 1 µM palbociclib or (R)-9b for 48 h and subjected to cell cycle analysis using propidium iodide staining, followed by flow-cytometry. Palbociclib-resistant MDA-MB-231 (K) and HCC-1395 (L) were generated and treated with varying drug concentrations of palbociclib or (R)-9b for 96 h and the cell viability assessed using trypan blue exclusion method.
(§2) For proliferation assay, 5 × 10^4 cells were plated in 6-well plate and treated with either vehicle (DMSO) or varying concentrations of (R)-9b or palbociclib in complete media for 96 h and number of viable cells were counted by trypan blue exclusion assay. Breast cancer cell lines were treated with vehicle or varying concentrations of (R)-9b for 72 h. The cells were harvested, washed 2 times with PBS and incubated with 3 ul of Annexin V-FITC antibody according to the manufacturers protocol (BD Biosciences). Five µl Propidium iodide was used to stain necrotic cells. The cells were acquired using the BD FACSCalibur machine (BD Biosciences) and data was analyzed using FlowJo software. Cell cycle analysis was performed as mentioned earlier. Briefly, vehicle or (R)-9b (48 h) treated cells were harvested by trypsinization, washed 2 times with PBS, and fixed using chilled 70% Ethanol for 1 h, followed by 2 washes with PBS. The cell pellets were treated with 50 µl RNase A (100 µg/ml; Sigma) for 15 min at 37 °C and Propidium Iodide (PI; 50 µg/ml, Sigma) was added to these cells, followed by acquisition using BD FACS Canto-II or FACSCalibur machines. The data were analyzed using FlowJo software.

MDA-MB-468 = test: proliferation assay, trypan blue exclusion; assay type: cell-based; details: MDA-MB-468 (lacking Rb), 96 h
Description: as §1, §2

[1] = tested on: cytochrome P450 (CYP) isoenzymes; assay type: in vitro ADME; details: human liver microsomes; CYP1A1/2, CYP2C9, CYP2C19, CYP2D6 and CYP3A4

SMILES: CN1CCN(c2ccc(Nc3ncc(Cl)c(NC[C@H]4CCCO4)n3)cc2)CC1 [(R)-9b]
- tumor weights (MDA-MB-468 xenografts; (R)-9b 36 mg/Kg oral or 24 mg/Kg subcutaneous, end of experiment): significant reduction in tumor weights
- xenograft tumor growth (MDA-MB-468 xenografts; palbociclib 80 mg/Kg oral, (R)-9b 36 mg/Kg oral or 24 mg/Kg subcutaneous, five times a week, 3 weeks): compromised tumors growth
- weights of the mice (MDA-MB-468 xenografts; palbociclib 80 mg/Kg, (R)-9b 36 mg/Kg oral or 24 mg/Kg subcutaneous): did not exhibit significant loss of weight
- histology (H&E) of heart, spleen, kidneys and livers (MDA-MB-468 xenografts; palbociclib 80 mg/Kg, (R)-9b oral and subcutaneous): did not reveal histological abnormalities
- sensitivity (cell proliferation) (BT549): sensitive
- sensitivity (cell proliferation) (MDA-MB-468): sensitive
- potential to inhibit cytochrome P450 (CYP) isoenzymes [1]: low potential to inhibit
